Assay results from patent US4447434A, “Substituted dibenzodiazepinones” (Dr. Karl Thomae GmbH, priority 1982, dated 1984).
Like-named read-outs stand apart in the source and are kept apart here.

What was measured:
[1] = Mydriasis (effect on the pupil size); conditions: rat, in vivo, iv; pupil size observed for 10 minutes; double blind
Method: The effect of the test substances on the pupil size in rats was investigated as follows:
The substances were administered intravenously to groups of 10 animals in at least three uniformly graduated doses. […] The percentage of test animals in which mydriasis occurred was determined. The ED50 values were again determined using the method of LITCHFIELD and WILCOXON (see above).

[2] = tested on: oxotremorine-induced lesions in the mucous membrane of the stomach; experiment: Oxotremorine test: antiulcerative effect (protection against lesions of the mucous membrane of the stomach); format: in vivo, rat (female albino, Crl:COBS-CD (SD) BR); conditions: Rattus norvegicus, iv; for ED50: read-out: Oxotremorine Test, Antiulcerative effect ED50; for ED70: read-out: Oxotremorine Test, Antiulcerative effect ED70
Method: (§1) Oxotremorine, a specific agonist for muscarinic receptors, produces lesions in the mucous membrane of the stomach in rats and increases their secretion of saliva. This test method was chosen so that any selective activity of an antimuscarinic substance on the stomach could be identified.
(§2) 10 female albino rats (of the Crl:COBS-CD (SD) BR strain) with a body weight of from 120 to 150 g were used in each treatment group and were kept without food for 24 hours before the start of the test but given free access to drinking water.
(§3) In order to determine, in preliminary tests, the muscarinic effect of oxotremorine on each of the symptoms studied, a dosage/activity curve was drawn up with at least three dosages for each symptom.
(§4) When testing the antimuscarinic substances, the dosage of oxotremorine which triggered the symptom in question in 90 to 100% of the animals in the preliminary tests was used.
Lesions in mucous membrane of stomach: 0.62 mg/kg i.v.
(§5) Each antimuscarinic substance was administered intravenously in uniformly graduated doses 15 minutes before the oxotremorine was administered. Control groups were given corresponding quantities of the solvent and suspending agent instead of the test substance.
(§6) Immediately after the oxotremorine was administered, the animals were placed in a glass case for 15 minutes and observed.
(§7) The ED50 values were determined using the method described by LITCHFIELD and WILCOXON (J. Pharmacol. Exp. Ther. 96, 99, 1949).
The effects on lesions of the mucous membrane of the stomach were evaluated as follows:
The lesions of the gastric mucous membrane were produced by intravenous injection of 0.62 mg/kg of oxotremorine 30 minutes after the oral administration of 1 mg/kg of neostigmine (a cholinesterase inhibitor). 60 minutes after the administration of the neostigmine, the animals were killed, the stomachs were removed and opened and examined for the presence of any lesions in the mucous membrane. The protective effect of the test substances was expressed as the percentage inhibition (percentage of animals without lesions). The ED50 and ED70 values were determined using the method of LITCHFIELD and WILCOXON (see above).

[3] = target: muscarinic receptors (smooth muscle fundus of stomach); experiment: Binding to muscarinic receptors, smooth muscle of the fundus of the stomach (displacement of 3H-N-methylscopolamine); parameters: species or system rat (male Sprague-Dawley); conditions: smooth muscle of fundus homogenate 1:100; 0.3 n molar 3H-NMS; 30° C, 45 min, pH 7.4; read-out: Receptor binding tests IC50, Smooth muscle fundus of stomach
Method: (§8) 2. Studies of binding to muscarinic receptors: Determination of the IC50 value
(§9) The organ donors were male Sprague-Dawley rats with a body weight of from 180 to 220 g. After the heart, stomach and cerebral cortex had been removed, the remainder of the operation was carried out in ice-cold Hepes-HCl buffer (pH 7.4; 100 m molar NaCl, 10 m molar MgCl2). The smooth muscle of the fundus of the stomach was separated from the mucous membrane of the stomach and subjected to preliminary homogenization. The whole heart was cut up with scissors. All the organs were then homogenized in a Potter apparatus.
(§10) For the binding test, the homogenized organs were diluted as follows:
Smooth muscle of the fundus of the stomach: 1:100
(§11) The homogenized organ preparations were incubated at a specific concentration of the radiolabelled compound and with a series of concentrations of the nonradioactive test substances in an Eppendorf centrifuge tube at 30° C. The duration of incubation was 45 minutes. 0.3 n molar ^3 H-N-methylscopolamine (^3 H-NMS) was used as the radiolabelled compound. After incubation had been brought to an end by centrifuging at 14000 g, the radioactivity in the pellet was determined. It represents the sum of the specific and nonspecific binding of ^3 H-NMS. The proportion of nonspecific binding was defined as the radioactivity which was bound in the presence of 1μ molar quinuclidinylbenzylate. Four measurements were taken in each case. The IC50 values of the non-labelled test substances were determined graphically. They represent the concentration of test substance at which the specific binding of ^3 H-NMS to the muscarinic receptors in the various organs was inhibited by 50%.

[4] = target: muscarinic receptors (cerebral cortex); experiment: Binding to muscarinic receptors, cerebral cortex (displacement of 3H-N-methylscopolamine); parameters: species or system rat (male Sprague-Dawley); conditions: cerebral cortex homogenate 1:3000; 0.3 n molar 3H-NMS; 30° C, 45 min, pH 7.4; read-out: Receptor binding tests IC50, Cortex
Method: as §8, §9, §10, §11

[5] = target: T1, muscarinic receptors (heart) (Rattus norvegicus, UniProt P10980); experiment: Binding to muscarinic receptors, whole heart (displacement of 3H-N-methylscopolamine); parameters: species or system rat (male Sprague-Dawley)
T1 construct: The whole heart was cut up with scissors; from tissue; host or cells: whole heart of male Sprague-Dawley rats, homogenate
T1 sequence (P10980 1-466): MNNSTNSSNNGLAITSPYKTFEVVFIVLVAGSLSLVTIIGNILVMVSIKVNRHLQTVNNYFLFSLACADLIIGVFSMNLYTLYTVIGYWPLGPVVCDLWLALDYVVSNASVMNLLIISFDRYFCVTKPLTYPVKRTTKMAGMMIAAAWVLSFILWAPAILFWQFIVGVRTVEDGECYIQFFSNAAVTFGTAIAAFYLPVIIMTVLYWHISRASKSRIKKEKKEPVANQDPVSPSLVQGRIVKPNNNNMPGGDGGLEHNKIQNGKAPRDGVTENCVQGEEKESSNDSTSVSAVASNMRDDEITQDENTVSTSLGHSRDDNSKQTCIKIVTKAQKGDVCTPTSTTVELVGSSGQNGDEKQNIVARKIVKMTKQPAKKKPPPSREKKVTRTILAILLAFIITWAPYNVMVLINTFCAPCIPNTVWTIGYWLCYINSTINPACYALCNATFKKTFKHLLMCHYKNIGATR
Method: as §8, §9, §10, §11

[6] = tested on: oxotremorine-induced secretion of saliva; experiment: Oxotremorine test: inhibition of salivation; format: in vivo, rat (female albino, Crl:COBS-CD (SD) BR); conditions: Rattus norvegicus, iv, 0.25 h, read-out: Oxotremorine Test, Inhibition of salivation ED50
Method: as §1, §2, §3, §4
Secretion of saliva: 0.083 mg/kg i.v.
as §5, §6, §7

[7] = 15 min before oxotremorine 0.62 mg/kg i.v., neostigmine 1 mg/kg oral
[8] = i.v., 15 min before oxotremorine 0.083 mg/kg i.v., double blind

Question: Which ED50 at 10 min [1] does the source give for `CN1CC=C(C(=O)N2c3ccccc3NC(=O)c3ccccc32)CC1` [Substance A, 5,10-dihydro-5-[(1-methyl-1,2,5,6-tetrahydro-4-pyridinyl)-carbonyl]-11H-dibenzo[b,e][1,4]diazepin-11-one] here?
Answer: 0.0366 mg/kg

Question: What about the ED50 [2, 7] of the same molecule?
Answer: 0.0031 mg/kg

Question: And the ED70 [2, 7]?
Answer: 0.0065 mg/kg

Question: What about the IC50 [3] of the same molecule?
Answer: 100 nM

Question: What about the IC50 [4] of the same molecule?
Answer: 30 nM

Question: What about the IC50 [5] of the same molecule?
Answer: 250 nM

Question: And the ED50 [6, 8]?
Answer: 0.08 mg/kg

Question: With `CN1[C@@H]2CC[C@H]1C[C@@H](CC(=O)N1c3ccccc3NC(=O)c3ccccc31)C2` [Substance C, endo-5,10-dihydro-5-[(8-methyl-8-azabicyclo[3,2,1]-oct-3-yl)acetyl]-11H-dibenzo[b,e][1,4]diazepin-11-one] as the molecule, how does the ED50 at 10 min [1] read?
Answer: 0.054 mg/kg

Question: And the ED50 [2]?
Answer: 0.0011 mg/kg

Question: What about the ED70 [2] of the same molecule?
Answer: 0.0038 mg/kg

Question: And the IC50 [3]?
Answer: 200 nM

Question: And the IC50 [4]?
Answer: 15 nM

Question: What about the IC50 ([5]; whole heart homogenate 1:250, 0.3 n molar 3H-NMS, 30° C, 45 min, pH 7.4, read-out: Receptor binding tests IC50, Heart) of the same molecule?
Answer: 55 nM

Question: What about the ED50 [6] of the same molecule?
Answer: 0.105 mg/kg

Question: For `CN1CCC(CC(=O)N2c3ccccc3C(=O)Nc3cccc(Cl)c32)CC1` [Substance B, 6-chloro-5,10-dihydro-5-[(1-methyl-4-piperidinyl)acetyl]-11H-dibenzo[b,e][1,4]diazepin-11-one], which ED50 at 10 min [1] is on record?
Answer: 0.138 mg/kg

Question: What about the ED50 [2, 7] of the same molecule?
Answer: 0.0044 mg/kg

Question: What about the ED70 [2, 7] of the same molecule?
Answer: 0.0084 mg/kg

Question: What about the IC50 [3] of the same molecule?
Answer: 170 nM

Question: And the IC50 [4]?
Answer: 28 nM

Question: And the IC50 [5]?
Answer: 200 nM

Question: And the ED50 [6, 8]?
Answer: 0.23 mg/kg
